Measurements reported in patent US8455467B2, “2-methylene-vitamin D analogs and their uses” (Wisconsin Alumni Research Foundation, priority 2011, dated 2013).

Columns and labels:
[1] = tested on: Human promyelocytic leukemia (HL60) cells; experiment: HL-60 cell differentiation (nitro blue tetrazolium reduction); type: cell-based; settings: for EC50: 4 days treatment, NBT reduction; for potency on HL-60 cell differentiation compared to 1,25(OH)2D3: in words
Protocol: Serial dilutions were prepared so that a range of drug concentrations could be tested without changing the final concentration of ethanol 0.2%) present in the cell cultures.
Human promyelocytic leukemia (HL60) cells were grown in RPMI-1640 medium containing 10% fetal bovine serum. The cells were incubated at 37° C. in the presence of 5% CO2.
HL60 cells were plated at 1.2×10^5 cells/ml. Eighteen hours after plating, cells in duplicate were treated with drug. Four days later, the cells were harvested and a nitro blue tetrazolium reduction assay was performed (Collins et al., 1979; J. Exp. Med. 149:969-974). The percentage of differentiated cells was determined by counting a total of 200 cells and recording the number that contained intracellular black-blue formazan deposits. Verification of differentiation to monocytic cells was determined by measuring phagocytic activity (data not shown).

[2] = target: T1, full-length recombinant rat vitamin D receptor (Rattus norvegicus, UniProt P13053); experiment: Vitamin D receptor competitive binding with [3H]-1,25(OH)2D3; settings: full-length recombinant rat VDR; for Ki: 1 nM radioligand, read-out: Ki, competition with [3H]-1,25(OH)2D3 for binding to the vitamin D receptor; for binding affinity to the receptor compared to 1,25-(OH)2D3: in words
T1 construct: Full-length recombinant rat receptor was expressed in E. coli BL21 (DE3) Codon Plus RIL cells; His tag (histidine tag) (C); made in house; host or cells: E. coli BL21 (DE3) Codon Plus RIL
T1 sequence (P13053 1-423): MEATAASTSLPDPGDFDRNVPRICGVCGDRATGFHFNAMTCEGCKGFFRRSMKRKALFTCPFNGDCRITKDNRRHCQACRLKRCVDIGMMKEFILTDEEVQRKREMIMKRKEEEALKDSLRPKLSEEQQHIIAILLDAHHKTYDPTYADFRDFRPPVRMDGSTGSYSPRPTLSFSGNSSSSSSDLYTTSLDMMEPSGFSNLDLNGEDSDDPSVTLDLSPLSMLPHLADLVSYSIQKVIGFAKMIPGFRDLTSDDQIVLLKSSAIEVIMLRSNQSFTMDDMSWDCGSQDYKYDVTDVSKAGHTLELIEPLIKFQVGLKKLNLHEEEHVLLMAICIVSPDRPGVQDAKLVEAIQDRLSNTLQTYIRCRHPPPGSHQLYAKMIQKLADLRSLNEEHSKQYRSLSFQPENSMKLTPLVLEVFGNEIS
Protocol: Full-length recombinant rat receptor was expressed in E. coli BL21 (DE3) Codon Plus RIL cells and purified to homogeneity using two different column chromatography systems. The first system was a nickel affinity resin that utilizes the C-terminal histidine tag on this protein. The protein that was eluted from this resin was further purified using ion exchange chromatography (S-Sepharose Fast Flow). Aliquots of the purified protein were quick frozen in liquid nitrogen and stored at −80° C. until use. For use in binding assays, the protein was diluted in TEDK50 (50 mM Tris, 1.5 mM EDTA, pH7.4, 5 mM DTT, 150 mM KCl) with 0.1% Chaps detergent. The receptor protein and ligand concentration was optimized such that no more than 20% of the added radiolabeled ligand was bound to the receptor.
Radiolabeled and unlabeled ligands were added to 100 mcl of the diluted protein at a final ethanol concentration of ≦10%, mixed and incubated overnight on ice to reach binding equilibrium. The following day, 100 mcl of hydroxylapatite slurry (50%) was added to each tube and mixed at 10-minute intervals for 30 minutes. The hydroxylapaptite was collected by centrifugation and then washed three times with Tris-EDTA buffer (50 mM Tris, 1.5 mM EDTA, pH 7.4) containing 0.5% Titron X-100. After the final wash, the pellets were transferred to scintillation vials containing 4 ml of Biosafe II scintillation cocktail, mixed and placed in a scintillation counter. Total binding was determined from the tubes containing only radiolabeled ligand.

[3] = Bone calcium mobilization (serum calcium) in vitamin D-deficient rats; type: in vivo, rat; settings: 0.02% Ca diet; for bone calcium mobilization (serum calcium) at 87 pmol: 87 pmol/day for 4 consecutive days; for bone calcium mobilization activity (serum calcium): 4 consecutive ip doses, overall, compared to 1,25(OH)2D3; for bone calcium mobilization (serum calcium) at 780 pmol: 780 pmol/day for 4 consecutive days
Protocol: (§1) Male, weanling Sprague-Dawley rats were placed on Diet 11 (Suda et al, J. Nutr. 100:1049, 1970) (0.47% Ca)+vitamins AEK for one week followed by Diet 11 (0.02% Ca)+vitamins AEK for 3 weeks. The rats were then switched to the same diet containing 0.47% Ca for one week followed by two weeks on the same diet containing 0.02% Ca. Dose administration began during the last week on 0.02% calcium diet. Four consecutive ip doses were given approximately 24 hours apart. Twenty-four hours after the last dose, blood was collected from the severed neck and the concentration of serum calcium determined by atomic absorption spectrometry as a measure of bone calcium mobilization. The first 10 cm of the intestine was also collected for intestinal calcium transport analysis using the everted gut sac method.

[4] = Intestinal calcium transport (everted gut sac method) in vitamin D-deficient rats; type: in vivo, rat; settings: 0.02% Ca diet, 4 consecutive ip doses, compared to 1,25(OH)2D3
Protocol: as §1

Row | EC50 ([1]; Homo sapiens, HL-60, 96 h) | Ki [2] | binding affinity to the receptor compared to 1,25-(OH)2D3 [2] | Structure (SMILES) | potency on HL-60 cell differentiation compared to 1,25(OH)2D3 [1] | bone calcium mobilization (serum calcium) at 87 pmol [3] | bone calcium mobilization activity (serum calcium) [3] | intestinal calcium transport activity [4] | bone calcium mobilization (serum calcium) at 780 pmol [3] | EC50 [1]
1 | > 100 nM | 0.9 nM | about the same affinity | C=C1CC(=C)[C@H](O)C/C1=C/C=C1\CCC[C@]2(C)[C@@H]([C@H](C)CCCC(C)(C)O)CC[C@@H]12 [1D-QM, (20R)-25-hydroxy-2-methylene-vitamin D3] | almost as potent as 1,25(OH)2D3 | little or no mobilization of bone calcium | less potent than the native hormone | – | – | –
2 | 10 nM | 0.2 nM | about the same affinity | C=C1CC(=C)[C@H](O)C/C1=C/C=C1\CCC[C@]2(C)[C@@H]([C@@H](C)CCCC(C)(C)O)CC[C@@H]12 [1D-QMS, (20S)-25-hydroxy-2-methylene-vitamin D3] | almost as potent as 1,25(OH)2D3 | – | about the same potency as the native hormone | about equivalent to 1,25(OH)2D3 | significant mobilization of bone calcium | –
3 | – | – | – | C=C1/C(=C\C=C2/CCC[C@]3(C)[C@@H]([C@H](C)CCCC(C)(C)O)CC[C@@H]23)C[C@@H](O)C[C@@H]1O [1α,25-dihydroxyvitamin D3, reference compound] | – | significant increases in serum calcium | increased serum calcium levels | – | significant increases in serum calcium | 3 nM
